Source: PMC5884652, “New antimicrobial peptide kills drug-resistant pathogens without detectable resistance” (Oncotarget, 2018)
≈ marks a conversion by molar mass, not a printed value.

Experiments:
Experiment in all cases: microbe, parasite or virus in culture
S. aureus 0027 = type: cell-based, Staphylococcus aureus; conditions: Staphylococcus aureus, 0027; pH (I or II) not given; 10 mM sodium phosphate buffer, 10% LB; 37° C, 24 h; mean of 3 experiments
From the text: (§1) The method for peptide synthesis has been described in detail previously. E. coli ATCC 25922 (LB media), P. aeruginosa ATCC 15692 (NB+0.5% NaCl media), Listeria monocytogenes ATCC 3710 (LB media), Staphylococcus epidermidis ATCC 12228 (LB media), and S. aureus ATCC 29213 (TSB media) were obtained from the American Type Culture Collection (Manassas, VA, USA). Bacillus subtilis KCTC 1998 (LB media), Salmonella typhimurium KCTC 1926 (NB media), and Proteus vulgaris KCTC 2433 (NB media) were obtained from the Korean Collection for Type Cultures (Jeollabuk-do, Korea). E. coli CCARM 1238 was received from the Culture Collection of Antibiotic Resistant Microbes at Seoul Women’s University, Korea. Drug-resistant P. aeruginosa 3543, 3904, 3547, and 4007 and S. aureus 3126, 0027, 5157, 1635, 4761, 5159, 3359, 2122, 1630, 1870, 3511, 5156, and 3518 were resistant strains isolated from patients with otitis media in a Chonnam National University’s hospital.
(§2) The antibacterial activities of AMPs (melittin, clavaspirin, and its analogs) and conventional antibiotic drugs (erythromycin, gentamicin, ampicillin, and piperacidin) were determined using microdilution assays. Bacterial cells were cultured at 37° C in appropriate culture media at pH 5.5 or pH 7.4 until collection during the mid-log phase and suspended in 10 mM sodium phosphate buffer (pH 5.5 or pH 7.4) supplemented with 10% culture medium. Thereafter, 2× serial dilutions of each peptide (0.25–128 μM) or antibiotic (0.25–256 μM) were added to sterile 96-well plates, and aliquots of cell suspension (5 × 10^5 colony forming units (cfu)/mL) were seeded into each well. The samples were then incubated at 37° C for 24 h. At the end of the incubation, the minimum inhibitory concentrations (MICs) of the peptides were determined using a VERSA Max microplate reader (Molecular Devices Co., Sunnyvale, CA, USA) at a wavelength of 600 nm. […] MIC values were calculated as the mean of 3 independent experiments conducted in triplicate.

S. aureus 1630 = type: cell-based, Staphylococcus aureus; conditions: Staphylococcus aureus, 1630; pH (I or II) not given; 10 mM sodium phosphate buffer, 10% LB; 37° C, 24 h; mean of 3 experiments
From the text: as §1, §2

S. aureus 1635 = type: cell-based, Staphylococcus aureus; conditions: Staphylococcus aureus, 1635; pH (I or II) not given; 10 mM sodium phosphate buffer, 10% LB; 37° C, 24 h; mean of 3 experiments
From the text: as §1, §2

S. aureus 1870 = type: cell-based, Staphylococcus aureus; conditions: Staphylococcus aureus, 1870; pH (I or II) not given; 10 mM sodium phosphate buffer, 10% LB; 37° C, 24 h; mean of 3 experiments
From the text: as §1, §2

S. aureus 2122 = type: cell-based, Staphylococcus aureus; conditions: Staphylococcus aureus, 2122; pH (I or II) not given; 10 mM sodium phosphate buffer, 10% LB; 37° C, 24 h; mean of 3 experiments
From the text: as §1, §2

S. aureus 3126 = type: cell-based, Staphylococcus aureus; conditions: Staphylococcus aureus, 3126; pH (I or II) not given; 10 mM sodium phosphate buffer, 10% LB; 37° C, 24 h; mean of 3 experiments
From the text: as §1, §2

S. aureus 3359 = type: cell-based, Staphylococcus aureus; conditions: Staphylococcus aureus, 3359; pH (I or II) not given; 10 mM sodium phosphate buffer, 10% LB; 37° C, 24 h; mean of 3 experiments
From the text: as §1, §2

S. aureus 3511 = type: cell-based, Staphylococcus aureus; conditions: Staphylococcus aureus, 3511; pH (I or II) not given; 10 mM sodium phosphate buffer, 10% LB; 37° C, 24 h; mean of 3 experiments
From the text: as §1, §2

S. aureus 3518 = type: cell-based, Staphylococcus aureus; conditions: Staphylococcus aureus, 3518; pH (I or II) not given; 10 mM sodium phosphate buffer, 10% LB; 37° C, 24 h; mean of 3 experiments
From the text: as §1, §2

S. aureus 4761 = type: cell-based, Staphylococcus aureus; conditions: Staphylococcus aureus, 4761; pH (I or II) not given; 10 mM sodium phosphate buffer, 10% LB; 37° C, 24 h; mean of 3 experiments
From the text: as §1, §2

S. aureus 5156 = type: cell-based, Staphylococcus aureus; conditions: Staphylococcus aureus, 5156; pH (I or II) not given; 10 mM sodium phosphate buffer, 10% LB; 37° C, 24 h; mean of 3 experiments
From the text: as §1, §2

S. aureus 5157 = type: cell-based, Staphylococcus aureus; conditions: Staphylococcus aureus, 5157; pH (I or II) not given; 10 mM sodium phosphate buffer, 10% LB; 37° C, 24 h; mean of 3 experiments
From the text: as §1, §2

S. aureus 5159 = type: cell-based, Staphylococcus aureus; conditions: Staphylococcus aureus, 5159; pH (I or II) not given; 10 mM sodium phosphate buffer, 10% LB; 37° C, 24 h; mean of 3 experiments
From the text: as §1, §2

P. aeruginosa 3543 = type: cell-based, Pseudomonas aeruginosa; conditions: pH (I or II) not given; 10 mM sodium phosphate buffer, 10% LB; 37° C, 24 h; mean of 3 experiments
From the text: as §1, §2

P. aeruginosa 3547 = type: cell-based, Pseudomonas aeruginosa; conditions: pH (I or II) not given; 10 mM sodium phosphate buffer, 10% LB; 37° C, 24 h; mean of 3 experiments
From the text: as §1, §2

P. aeruginosa 3904 = type: cell-based, Pseudomonas aeruginosa; conditions: pH (I or II) not given; 10 mM sodium phosphate buffer, 10% LB; 37° C, 24 h; mean of 3 experiments
From the text: as §1, §2

P. aeruginosa 4007 = type: cell-based, Pseudomonas aeruginosa; conditions: pH (I or II) not given; 10 mM sodium phosphate buffer, 10% LB; 37° C, 24 h; mean of 3 experiments
From the text: as §1, §2

MIC (P. aeruginosa 3543) [µM]	MIC (P. aeruginosa 3547) [µM]	MIC (P. aeruginosa 3904) [µM]	MIC (P. aeruginosa 4007) [µM]	Structure (SMILES)	MIC (S. aureus 0027) [µM]	MIC (S. aureus 1630) [µM]	MIC (S. aureus 1635) [µM]	MIC (S. aureus 1870) [µM]	MIC (S. aureus 2122) [µM]	MIC (S. aureus 3126) [µM]	MIC (S. aureus 3359) [µM]	MIC (S. aureus 3511) [µM]	MIC (S. aureus 3518) [µM]	MIC (S. aureus 4761) [µM]	MIC (S. aureus 5156) [µM]	MIC (S. aureus 5157) [µM]	MIC (S. aureus 5159) [µM]
–	–	–	–	CC[C@H]1OC(=O)[C@H](C)[C@@H](O[C@H]2C[C@@](C)(OC)[C@@H](O)[C@H](C)O2)[C@H](C)[C@@H](O[C@@H]2O[C@H](C)C[C@H](N(C)C)[C@H]2O)[C@](C)(O)C[C@@H](C)C(=O)[C@H](C)[C@@H](O)[C@]1(C)O [erythromycin]	> 256	> 256	> 256	> 256	> 256	128 (≈ 93.9 µg/mL)	> 256	> 256	> 256	> 256	> 256	16 (≈ 11.7 µg/mL)	16 (≈ 11.7 µg/mL)
>800	200 (≈ 104 µg/mL)	>800	>800	CCN1CCN(C(=O)N[C@@H](C(=O)N[C@@H]2C(=O)N3[C@@H]2SC(C)(C)[C@@H]3C(=O)O)c2ccccc2)C(=O)C1=O [piperacidin]	–	–	–	–	–	–	–	–	–	–	–	–	–
